Read-outs that look alike come from different tables or passages of the source. Values belong to the compound of their own block, whether it stands above or below them.
Tests used:
Human HGPRT [1] = test system: Human HGPRT; parameters: method as in de Jersey et al. 10; conditions: cited from earlier work
TcrHGPRT = test system: TcrHGPRT; parameters: method as in Canyuk et al. 43; Allen & Ullman 54; conditions: cited from earlier work
TbrHGPRT [2] = biological target: T1, TbrHGPRT (Trypanosoma brucei brucei, UniProt Q07010); experiment: Kinetic constants of naturally occurring substrates, continuous spectrophotometric assay; type: biochemical; parameters: made in house; host or cells: E. coli BL-21 (DE3), pET-22b
Procedure: One unit of activity is defined as the number of μmol of purine base converted to its mononucleotide product per minute.
The kinetic constants were calculated using GraphPad Prism 6.0.

Human HGPRT [3] = biological target: Human HGPRT; parameters: method as in Cesnek et al. 19; Keough et al. 18; conditions: ref Cesnek et al. 19, Keough et al. 18; cited from earlier work
TbrHGPRT [4] = biological target: T1, TbrHGPRT; experiment: Inhibition studies, Ki determination
TbrHGPRT [5] = biological target: T1, TbrHGPRT; experiment: Standard enzyme activity assay with ammonium sulphate added; type: biochemical; parameters: made in house; host or cells: E. coli BL-21 (DE3), pET-22b; conditions: 2M ammonium sulphate added to the cuvette
[6] = ref de Jersey et al. 10, read-out: Km
[7] = ref Canyuk et al. 43, Allen & Ullman 54, read-out: Km
[8] = ref Canyuk et al. 43, Allen & Ullman 54

T1 sequence (Q07010 whole entry): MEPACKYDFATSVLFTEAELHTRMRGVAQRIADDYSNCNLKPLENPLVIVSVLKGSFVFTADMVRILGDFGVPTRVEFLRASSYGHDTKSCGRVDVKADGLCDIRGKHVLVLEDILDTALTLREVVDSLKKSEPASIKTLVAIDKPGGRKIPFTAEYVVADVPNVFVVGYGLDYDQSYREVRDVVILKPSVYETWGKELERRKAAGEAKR

SMILES: Nc1nc2nc[nH]c2c(=O)[nH]1 [Guanine]
Km (Human HGPRT [1]; [6]): 1.9 ± 0.4 µM
kcat (Human HGPRT [1]; ref de Jersey et al. 10): 8.2 ± 0.6 s⁻¹
Km (TcrHGPRT; [7]): 9.9 ± 0.29 µM
kcat (TcrHGPRT; [8]): 41.2 ± 2.9 s⁻¹

SMILES: O=c1[nH]cnc2nc[nH]c12 [Hypoxanthine]
Km, fold higher than for guanine (TbrHGPRT [2]; TbrHGPRT): 2 fold
Km (Human HGPRT [1]; [6]): 3.4 ± 1 µM
kcat (Human HGPRT [1]; ref de Jersey et al. 10): 5.2 ± 0.4 s⁻¹
Km (TcrHGPRT; [7]): 8.6 ± 1 µM
kcat (TcrHGPRT; [8]): 23 s⁻¹

Ki (TbrHGPRT [4]): 23.7 ± 0.3 µM
SMILES: Nc1nc2c(ncn2CCCCP(=O)(O)O)c(=O)[nH]1 [Compound 1]
Ki (Human HGPRT [3]): 21 µM

Ki (TbrHGPRT [4]): 2.3 ± 0.1 µM
SMILES: Nc1nc2c(ncn2CCCCCP(=O)(O)O)c(=O)[nH]1 [Compound 2]
Ki (Human HGPRT [3]): 0.5 µM

Ki (TbrHGPRT [4]): 58.6 ± 4 µM
SMILES: O=c1[nH]cnc2c1ncn2CCCCP(=O)(O)O [Compound 5]
Ki (Human HGPRT [3]): > 100 µM

Ki (TbrHGPRT [4]; 0.03 M phosphate, […] MgCl2, 1 mM DTT, pH 7.4, 25 °C, guanine 40 μM, PRib-PP varied 20 to 630 μM): 30.5 ± 1.5 µM
Ki for GMP, fold lower than for IMP (TbrHGPRT [4]; TbrHGPRT): 2.5 fold
Ki for TbrHGPRT, fold higher than for human HGPRT (TbrHGPRT [4]; TbrHGPRT vs human HGPRT): 5 fold
SMILES: Nc1nc2c(ncn2[C@@H]2O[C@H](COP(=O)(O)O)[C@@H](O)[C@H]2O)c(=O)[nH]1 [GMP, reference compound]
Ki (Human HGPRT [3]): 5.8 ± 0.2 µM

SMILES: O=c1[nH]c(=O)c2nc[nH]c2[nH]1 [Xanthine]
kcat (TbrHGPRT [2]; 0.03 M phosphate buffer, […] MgCl2, 1 mM DTT, pH 7.4, 25 °C): Weak activity
Km (TbrHGPRT [2]; 0.03 M phosphate buffer, […] MgCl2, 1 mM DTT, pH 7.4, 25 °C, bases at 500 μM PRib-PP, PRib-PP at 40 μM guanine): Weak activity
activity as a substrate (TbrHGPRT [2]; TbrHGPRT): only very weak activity
Km (Human HGPRT [1]; ref de Jersey et al. 10): Not a substrate
kcat (Human HGPRT [1]; ref de Jersey et al. 10): Not a substrate
Km (TcrHGPRT; [8]): No activity reported
kcat (TcrHGPRT; [8]): No activity reported

Ki (TbrHGPRT [4]): 21.3 ± 0.4 µM
SMILES: Nc1nc2c(ncn2CCCCCCP(=O)(O)O)c(=O)[nH]1 [Compound 3]
Ki (Human HGPRT [3]): 0.5 µM

Ki (TbrHGPRT [4]): > 100 µM
SMILES: O=c1[nH]cnc2c1ncn2CCCP(=O)(O)O [Compound 4]
Ki (Human HGPRT [3]): > 100 µM

Ki (TbrHGPRT [4]): 15.8 ± 1.8 µM
SMILES: O=c1[nH]cnc2c1ncn2CCCCCP(=O)(O)O [Compound 6]
Ki (Human HGPRT [3]): > 100 µM

SMILES: N.N.O=S(=O)(O)O [sulphate, ammonium sulphate]
inhibition (TbrHGPRT [5]): 25%

Ki (TbrHGPRT [4]): > 100 µM
SMILES: O=c1[nH]cnc2c1ncn2CCCCCCP(=O)(O)O [Compound 7]
Ki (Human HGPRT [3]): 77 µM

SMILES: O=P(O)(O)OC[C@H]1O[C@H](OP(=O)(O)OP(=O)(O)O)[C@H](O)[C@@H]1O [PRib-PP]
Km (Human HGPRT [1]; [6]): 59.6 ± 6 µM
Km (TcrHGPRT; [7]): 32.4 ± 3.1 µM

— paper PMC5081515 (Scientific Reports, 2016)
